How the values were obtained:
NTSR2 antibody = test: NTSR2 antibody–NTS(8–13) peptide binding affinity by microscale thermophoresis (MST); details: Monolith NT.115 Pico, RED-NHS-labeled NTSR2 antibody 20 nM, PBS with 0.005% Tween-20, 20 min dark incubation, 16 serial dilutions from 0.5 mg/mL, free peptide in solution, n = 3, read-out: dissociation constant (Kd)
Procedure: An RED-NHS 2nd generation protein labeling kit and Monolith NT.115 premium capillaries were obtained from NanoTemper Technologies (Munich, Germany). The binding affinity of the NTSR2 antibody–NTS(8–13) peptide interaction was evaluated using microscale thermophoresis (MST) with Monolith NT.115 Pico instrument (NanoTemper Technologies, Munich, Germany). The NTSR2 antibody was labeled with the Monolith protein labeling kit and RED-NHS 2nd generation kit and used as a target molecule in PBS with 0.005% Tween-20. Experiments were conducted using the Monolith NT.115 premium capillariesat Pico-RED 80% excitation power and medium MST power with thermophoresis. For the labeled NTSR2 antibody, a concentration of 20 nM was used, whereas for the NTS(8–13) peptide, 16 serial dilutions were prepared starting from 0.5 mg/mL. Dark incubation was performed for 20 min after mixing the target and ligand molecule. Triplicate results were analyzed using the M.O. affinity analysisv.2.3 software.

[1] = target: high-affinity receptor (NTSR2); details: binding affinity to its high-affinity receptor (NTSR2) according to the literature; ref [69]; cited from earlier work

For “RRPYIL [NTS(8–13), fragment of the neurotensin peptide (RRPYIL)]”, the Kd (NTSR2 antibody) is given as 32.9 µM and the Kd [1] is given as 0.005 to 0.007 µM.
